Assay: Measurement of logP values by HPLC on reversed phase columns (EEC directive 79/831 Annex V.A8)
Format: physicochemical
Settings: pH 2.7, 0.1% formic acid in water / acetonitrile gradient 10% to 95%; for chromatographic logP: reversed phase HPLC column

SMILES | logp | further results
CCCCCOC(=O)Nc1cccc(CON=C(c2ccc(C(F)(F)F)cc2F)c2nnnn2C)n1 (single isomer, unassigned) [Example 23] | 4.78 | 
CCCCCOC(=O)Nc1cccc(CON=C(c2ccc(C(F)(F)F)cc2F)c2nnnn2C)n1 (single isomer, unassigned) [Example 24] | 4.73 | 
CC(C)C(=O)Nc1cccc(CON=C(c2ccc(C(F)(F)F)cc2F)c2nnnn2C)n1 (single isomer, unassigned) [Example 28] | 3.48 | 
CCCCCOC(=O)Nc1cccc(CON=C(c2ccc(OC(F)(F)F)cc2C)c2nnnn2C)n1 (single isomer, unassigned) [Example 96] | 4.89 | 
CCCCCOC(=O)Nc1cccc(CON=C(c2ccc(OC(F)(F)F)cc2C)c2nnnn2C)n1 (single isomer, unassigned) [Example 97] | 5.11 | 
CCCCCC(=O)Nc1cccc(CON=C(c2ccc(C)c(F)c2)c2nnnn2C)n1 (single isomer, unassigned) [Example 102] | 4.21 | 
CCCCCC(=O)Nc1cccc(CON=C(c2ccc(OC(F)(F)F)cc2C)c2nnnn2C)n1 (single isomer, unassigned) [Example 108] | 4.39 | 
CCCCCOC(=O)Nc1cccc(CON=C(c2cc(C(F)(F)F)ccc2C)c2nnnn2C)n1 (single isomer, unassigned) [Example 110] | 4.84 | 
CCCCCC(=O)Nc1cccc(CON=C(c2ccc(C)cc2Cl)c2nnnn2C)n1 (single isomer, unassigned) [Example 113] | 4.16 | 
CCCCCC(=O)Nc1cccc(CON=C(c2ccc(C)c(F)c2)c2nnnn2C)n1 (single isomer, unassigned) [Example 114] | 4.16 | 
CCCCCC(=O)Nc1cccc(CON=C(c2cc(C)ccc2Cl)c2nnnn2C)n1 (single isomer, unassigned) [Example 117] | 4.19 | 
Cn1nnnc1C(=NOCc1cccc(N)n1)c1ccc(C(F)(F)F)cc1F (single isomer, unassigned) [Example 141] |  | Log p: 1.82
Cn1nnnc1C(=NOCc1cccc(N)n1)c1ccc(C(F)(F)F)cc1F (single isomer, unassigned) [Example 142] |  | Log p: 1.72
Cn1nnnc1C(=NOCc1cccc(N)n1)c1cccc(C(F)(F)F)c1F (single isomer, unassigned) [Example 144] |  | Log p: 1.65
Cc1cc(F)cc(C(=NOCc2cccc(NC(=O)CC(C)C)n2)c2nnnn2C)c1 (single isomer, unassigned) [Example 157] |  | Log p: 3.71
Cc1cc(F)cc(C(=NOCc2cccc(NC(=O)CC(C)C)n2)c2nnnn2C)c1 (single isomer, unassigned) [Example 158] |  | Log p: 3.76
CCCCOC(=O)Nc1ccnc(CON=C(c2ccc(C)c(C(F)(F)F)c2)c2nnnn2C)n1 [Example 8, butyl(2-{[({(1-methyl-1H-tetrazol-5-yl)[4-methyl-3-(trifluoromethyl)phenyl]methylidene}amino)oxy]methyl}pyrimidin-4-yl)carbamate] |  | chromatographic logP: 4.24
CCCCCOC(=O)Nc1nc(CON=C(c2ccc(C)c(C(F)(F)F)c2)c2nnnn2C)cs1 [Example 22, pentyl(4-{[({(1-methyl-1H-tetrazol-5-yl)[4-methyl-3-(trifluoromethyl)phenyl]methylidene}amino)oxy]methyl}-1,3-thiazol-2-yl)carbamate] |  | chromatographic logP: 4.73
CCCCCC(=O)Nc1cccc(CON=C(c2ccc(C(F)(F)F)cc2F)c2nnnn2C)n1 [Example 26] | 4.29 | 
CCCCCC(=O)Nc1cccc(CON=C(c2cccc(C(F)(F)F)c2F)c2nnnn2C)n1 [Example 27, N-(6-{[({[2-fluoro-3-(trifluoromethyl)phenyl](1-methyl-1H-tetrazol-5-yl)methylidene}amino)oxy]methyl}pyridin-2-yl)hexanamide] |  | chromatographic logP: 4.16
CCCCCC(=O)Nc1cccc(CON=C(c2cc(C)ccc2F)c2nnnn2C)n1 [Example 29] | 3.83 | 
Cc1ccc(C(=NOCc2cccc(NC(=O)CC(C)C)n2)c2nnnn2C)cc1F [Example 32] | 3.71 | 
Cc1cccc(C(=NOCc2cccc(NC(=O)CC(C)C)n2)c2nnnn2C)c1F [Example 33] | 3.51 | 

SMILES | logp | further results
Cc1cc(OC(F)(F)F)ccc1C(=NOCc1cccc(NC(=O)CC(C)C)n1)c1nnnn1C [Example 34] | 4.16 | 
Cc1ccc(Cl)c(C(=NOCc2cccc(NC(=O)CC(C)C)n2)c2nnnn2C)c1 [Example 35] | 3.73 | 
Cc1cc(C(=NOCc2cccc(NC(=O)CC(C)C)n2)c2nnnn2C)ccc1F [Example 37] | 3.67 | 
Cc1ccc(C(=NOCc2cccc(NC(=O)CC(C)C)n2)c2nnnn2C)c(F)c1 [Example 38] | 3.53 | 
CCCCCOC(=O)Nc1cccc(CON=C(c2cc(C)cc(C)c2)c2nnnn2C)n1 [Example 39] | 4.86 | 
Cc1ccc(C(=NOCc2cccc(NC(=O)CC(C)C)n2)c2nnnn2C)c(Cl)c1 [Example 40] | 3.73 | 
CCCCCC(=O)Nc1cccc(CON=C(c2cc(C)ccc2F)c2nnnn2C)n1 [Example 42] | 3.83 | 
Cc1ccc(C(=NOCc2cccc(NC(=O)CC(C)C)n2)c2nnnn2C)cc1C(F)(F)F [Example 43] | 4.16 | 
CCCCCOC(=O)Nc1cccc(CON=C(c2cccc(C(F)(F)F)c2C)c2nnnn2C)n1 [Example 44] | 4.78 | 
CCCCCC(=O)Nc1cccc(CON=C(c2cc(F)cc(C(F)(F)F)c2)c2nnnn2C)n1 [Example 45] | 4.29 | 
Cc1ccc(C(=NOCc2cccc(NC(=O)CC(C)C)n2)c2nnnn2C)c(Cl)c1 [Example 46] | 3.73 | 
Cc1ccc(F)c(C(=NOCc2cccc(NC(=O)CC(C)C)n2)c2nnnn2C)c1 [Example 48] | 3.53 | 
Cc1ccc(C(=NOCc2cccc(NC(=O)CC(C)C)n2)c2nnnn2C)c(Cl)c1 [Example 51] | 3.53 | 
CCCCCOC(=O)Nc1ccnc(CON=C(c2ccc(C)c(C(F)(F)F)c2)c2nnnn2C)n1 [Example 52] | 4.62 | 
C#CCCOC(=O)Nc1cccc(CON=C(c2ccc(F)c(C)c2)c2nnnn2C)n1 [Example 53] | 3.55 | 
C=CCCOC(=O)Nc1cccc(CON=C(c2ccc(F)c(C)c2)c2nnnn2C)n1 [Example 55] | 3.92 | 
C=CCOC(=O)Nc1cccc(CON=C(c2ccc(F)c(C)c2)c2nnnn2C)n1 [Example 56] | 3.63 | 
Cc1cc(C(=NOCc2cccc(NC(=O)CCOc3ccccc3)n2)c2nnnn2C)ccc1F [Example 57] | 3.87 | 
Cc1cc(C(=NOCc2cccc(NC(=O)CCC3CCCC3)n2)c2nnnn2C)ccc1F [Example 58] | 4.56 | 
COc1ccc(CC(=O)Nc2cccc(CON=C(c3ccc(F)c(C)c3)c3nnnn3C)n2)cc1 [Example 59] | 3.68 | 
COc1cccc(CC(=O)Nc2cccc(CON=C(c3ccc(F)c(C)c3)c3nnnn3C)n2)c1 [Example 60] | 3.72 | 
COc1ccccc1CC(=O)Nc1cccc(CON=C(c2ccc(F)c(C)c2)c2nnnn2C)n1 [Example 61] | 3.9 | 
Cc1ccc(Cl)c(C(=NOCc2cccc(NC(=O)CC(C)C)n2)c2nnnn2C)c1 [Example 62] | 3.53 | 

SMILES | logp | further results
CC(C)CC(=O)Nc1cccc(CON=C(c2cc(C(F)(F)F)ccc2Cl)c2nnnn2C)n1 [Example 63] | 3.96 | 
Cc1ccc(C(F)(F)F)cc1C(=NOCc1cccc(NC(=O)CC(C)C)n1)c1nnnn1C [Example 64] | 3.94 | 
CC(C)CC(=O)Nc1cccc(CON=C(c2cc(F)cc(C(F)(F)F)c2)c2nnnn2C)n1 [Example 65] | 3.89 | 
CC(C)CC(=O)Nc1cccc(CON=C(c2ccc(F)c(C(F)(F)F)c2)c2nnnn2C)n1 [Example 66] | 3.94 | 
Cc1ccc(C(F)(F)F)cc1C(=NOCc1cccc(NC(=O)CC(C)C)n1)c1nnnn1C [Example 67] | 3.62 | 
Cc1ccc(C(=NOCc2cccc(NC(=O)CC(C)C)n2)c2nnnn2C)cc1C(F)(F)F [Example 69] | 4.14 | 
CC(C)CC(=O)Nc1cccc(CON=C(c2ccc(Cl)c(C(F)(F)F)c2)c2nnnn2C)n1 [Example 70] | 4.26 | 
CC(C)CC(=O)Nc1cccc(CON=C(c2ccc(C(F)(F)F)c(Cl)c2)c2nnnn2C)n1 [Example 71] | 4.29 | 
Cc1c(F)cccc1C(=NOCc1cccc(NC(=O)CC(C)C)n1)c1nnnn1C [Example 73] | 3.53 | 
Cc1ccc(F)c(C(=NOCc2cccc(NC(=O)CC(C)C)n2)c2nnnn2C)c1 [Example 75] | 3.42 | 
CCCCCOC(=O)Nc1cccc(CON=C(c2ccc(C)c(C(F)(F)F)c2)c2nnnn2C)n1 [Example 78] | 5.05 | 
CCCCCOC(=O)Nc1cccc(CON=C(c2ccc(C(F)(F)F)c(Cl)c2)c2nnnn2C)n1 [Example 79] | 5.23 | 
CCCCCOC(=O)Nc1cccc(CON=C(c2ccc(C)c(C(F)(F)F)c2)c2nnnn2C)n1 [Example 81] | 5.08 | 
CCCCCOC(=O)Nc1cccc(CON=C(c2ccc(F)c(C(F)(F)F)c2)c2nnnn2C)n1 [Example 82] | 4.86 | 
CCCCCOC(=O)Nc1cccc(CON=C(c2cc(C)ccc2Cl)c2nnnn2C)n1 [Example 83] | 4.54 | 
CCCCCOC(=O)Nc1cccc(CON=C(c2cc(C)ccc2Cl)c2nnnn2C)n1 [Example 84] | 4.73 | 
CCCCCOC(=O)Nc1cccc(CON=C(c2ccc(C(F)(F)F)c(Cl)c2)c2nnnn2C)n1 [Example 86] | 5.2 | 
CCCCCOC(=O)Nc1cccc(CON=C(c2cccc(C(F)(F)F)c2Cl)c2nnnn2C)n1 [Example 87] | 4.81 | 
CCCCCOC(=O)Nc1cccc(CON=C(c2ccc(Cl)c(C(F)(F)F)c2)c2nnnn2C)n1 [Example 88] | 5.14 | 
CCCCCC(=O)Nc1cccc(CON=C(c2ccc(C)c(C(F)(F)F)c2)c2nnnn2C)n1 [Example 89] | 4.56 | 
CCCCC(=O)Nc1ccnc(CON=C(c2ccc(C)c(C(F)(F)F)c2)c2nnnn2C)n1 [Example 90] | 3.94 | 
CCCCCOC(=O)Nc1cccc(CON=C(c2ccc(C)cc2Cl)c2nnnn2C)n1 [Example 91] | 4.7 | 
CCCCCOC(=O)Nc1cccc(CON=C(c2ccc(C)cc2Cl)c2nnnn2C)n1 [Example 92] | 4.54 | 
